Assay results published in patent US20120264928A1, “THERAPEUTIC PHARMACEUTICAL AGENT FOR DISEASES ASSOCIATED WITH DECREASE IN FUNCTION OF GNE PROTEIN, FOOD COMPOSITION, AND FOOD ADDITIVE” (JAPAN HEALTH SCIENCES FOUNDATION, priority 2009, published 2012).

System: primary cultured cells of myotubes derived from the DMRV model mice
Assay: Amount of NeuAc by HPLC in myotubes from DMRV model mice
Assay type: cell-based
Conditions: 100 or 500 μm Ac5GlcNAcol together with 10 mM ManNAc, three days
Method: The skeletal muscle tissues collected from the DMRV human patients or the model mice were lightly washed with PBS or Hank's balanced saline and were treated with 0.25% trypsin for 5 minutes. The tissues were finely cut into several millimeters with ophthalmic scissors, were digested with 0.4% collagenase II/0.25% trypsin at 37° C. for 30 minutes, and were left still to collect supernatant. The precipitate was again treated with the enzyme liquid. After being left still, the precipitate was well suspended in a DMEM-Ham's F-12 culture medium. The tissue suspension was passed through a nylon mesh to remove the tissues. The washings and the supernatant were centrifuged to collect cells. […]
In the case that the sample was cultured cells, the cells were washed with PBS three times, and 400 p. […] The fluorescent derivative thus prepared was analyzed with HPLC (JASCO Corp.) using 0.05 to 5 nmol/μl Neu5Ac and Neu5Gc standards. The amount of protein from the tissue was measured with a Bio-Rad Protein Assay kit (Bio-Rad Laboratories).
ManNAc or Ac5GlcNAcol was added to the culture media of primary cultured cells of myotubes derived from the DMRV model mice such that the final concentration of ManNAc was 10 mM and the final concentration of Ac5GlcNAcol was […]. […] The amount of NeuAc in the cultured cells was measured by the HPLC method described above (N=3).

CC(=O)N[C@@H](COC(C)=O)[C@@H](OC(C)=O)[C@H](OC(C)=O)[C@@H](COC(C)=O)OC(C)=O [Ac5GlcNAcol, Penta-O-acetyl N-acetylglucosaminitol]
amount of NeuAc in the myotubes: further increased the amount of NeuAc
